Experimental data taken from patent US20060138687A1, “Method of forming particles” (Ferro Corporation, priority 2003, published 2006).

Assay: Scanning Electron Microscopy (SEM) analysis of collected particles
Format: physicochemical
Details: SEM micrograph; particles made by third embodiment (droplets frozen on contact with CO2/ethanol/water extracting fluid at −23° C., solid-liquid extraction)
Experimental: The collected particles were analyzed using Scanning Electron Microscopy (SEM). From FIG. 11 it is clear that the GF particles are in the form of non-agglomerated crystals, having an orthorhombic shape. The mean size of the substantially uniform particles is around 5-10 μm.
Analysis of the porous lactose particles was carried out in the same manner as described in Example 1. FIG. 12 is an SEM micrograph of the lactose particles. […] If desired, these lactose nanocrystals can be obtained simply by crumbling the large porous lactose spheres.

Row | mean size of the particles | SMILES
1 | 5-10 μm | COC1=CC(=O)C[C@@H](C)[C@]12Oc1c(Cl)c(OC)cc(OC)c1C2=O [GF, Griseofulvin]
2 | 20-30 μm | OC[C@H]1O[C@@H](O[C@H]2[C@H](O)[C@@H](O)C(O)O[C@@H]2CO)[C@H](O)[C@@H](O)[C@H]1O (some centres unmarked) [lactose, Lactose]
